Assay results reported in US20060079696A1, “Substituted compounds derived from N-(benzyl)phenylacetamide, preparation and uses” (GENFIT, priority 2004, published 2006).

Columns and labels:
[1] = molecular target: T1, ATP-dependent potassium channels (K+ATP) (Rattus norvegicus, UniProt Q09429); assay: [3H]glibenclamide binding to ATP-dependent potassium channels of rat cerebral cortex; conditions: FIG. 2
T1 construct: the potassium channels derive from a rat's cerebral cortex; tissue CEREP; host or cells: rat cerebral cortex
How it was run: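 Rat cerebral cortex membranes incubated 1 h at 22° C with 0.1 nM [3H]glibenclamide; nonspecific binding defined with 1 μM unlabelled glibenclamide. Compounds tested at 3–300 nM; values are percent inhibition of specific binding.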

Male Sprague-Dawley rats = assay: Glycemia and insulinemia after oral administration in fasted rats; format: in vivo, rat
From the text: In normal animals (as in man), the consequence of the administration of insulinotropic compounds is a significant increase in the plasmatic level of insulin. This induced hyperinsulinemia induces a reduction in glycemia. This example studies the evolution of glycemia and of insulinemia following oral administration of the inventive compounds in rats: the insulinotropic action of the compounds in vivo should induce a significant decrease of glycemia.
Male Sprague-Dawley rats (300-320 g) (CERJ—Le Genest St Isle-France) were used in order to carry out this experiment. The rats were fed with a standard diet of granular material; they had free access to food and drink and were kept in individual, ventilated cages in a 12 hr/12 hr light/dark rhythm. The animals were deprived of food for 16 hours prior to the experiment.
The compound was suspended in an aqueous carboxymethylcellulose solution (Sigma C4888) at 1% containing 0.1% Tween80 (Sigma P8074). The animals of the control group received the vehicle alone. The treated animals received a single administration of the compound (the suspension was administered by gavage at the rate of 10 ml/kg). Each group was made up of 11 animals. A 1st blood sample was taken by puncturing the retro-orbital sinus of the animals under volatile isoflurane anaesthesia: this sample makes up the initial time of the experiment. The substance or the vehicle were immediately administered to the animals by gavage, and blood samples were taken over time.
The animals' glycemia was measured in real time using a glucometer (Glucotrend2-Roche Diagnostic-France). The insulinemias were measured using an ELISA kit (Insulin Elisa Kit—Crystal Chem. USA). The method used was of the ELISA type: plasmatic insulin was specifically bound to anti-insulin monoclonal antibodies immobilised on the microtitration plate; simultaneously, an anti-insulin polyclonal guinea pig antibody was added to the reaction. The revelation of the reaction was guaranteed by an antibody coupled to peroxidase. These antibodies bind specifically to the guinea pig's immunoglobulins. The production of oxidised chromogen causes an increase in absorbance in proportion to the quantity of insulin present in the sample.

[2] = system: isolated human pancreatic islets; assay: Insulin secretion by isolated human pancreatic islets; format: cell-based; conditions: 1 hour incubation
Experimental: Isolated islets of Langerhans were put together with compounds according to the invention. They were incubated for one hour, and then the supernatant was taken off. The insulin contained in the supernatant (which corresponds to the insulin secreted by the islets over 1 hr) was titrated. It was compared to the basal secretion of insulin, i.e. to the quantity of insulin secreted by the islets over 1 hour in the absence of a compound. The higher the induced insulin/basal insulin ratio, the stronger the insulinotropic potential of the compound.
This study was carried out in the cellular therapy of diabetes laboratory led by Professor Pattou (INSERM ERIT-M 0106, Faculty of medicine of Lille, France (59)). The protocols for the extraction of islets and culture are published (Riachy, Vandewalle et al. 2001). The islets were cultured in a CMRL1066 (Gibco BRL) medium containing 5.5 mmol/l glucose. They were put together with the compounds (+0.001% DMSO). The insulin secreted was measured after 1 hour incubation (titration of the supernatant after centrifugation and extraction as described in the reference) according to a radioimmunological titration method (BI-INSULIN IRMA kit, Sanofi Diagnostics Pasteur). Each condition was applied to 5 independent islets preparations, each containing 40 equivalent islets (40 IE). […]

T1 sequence (Q09429 whole entry): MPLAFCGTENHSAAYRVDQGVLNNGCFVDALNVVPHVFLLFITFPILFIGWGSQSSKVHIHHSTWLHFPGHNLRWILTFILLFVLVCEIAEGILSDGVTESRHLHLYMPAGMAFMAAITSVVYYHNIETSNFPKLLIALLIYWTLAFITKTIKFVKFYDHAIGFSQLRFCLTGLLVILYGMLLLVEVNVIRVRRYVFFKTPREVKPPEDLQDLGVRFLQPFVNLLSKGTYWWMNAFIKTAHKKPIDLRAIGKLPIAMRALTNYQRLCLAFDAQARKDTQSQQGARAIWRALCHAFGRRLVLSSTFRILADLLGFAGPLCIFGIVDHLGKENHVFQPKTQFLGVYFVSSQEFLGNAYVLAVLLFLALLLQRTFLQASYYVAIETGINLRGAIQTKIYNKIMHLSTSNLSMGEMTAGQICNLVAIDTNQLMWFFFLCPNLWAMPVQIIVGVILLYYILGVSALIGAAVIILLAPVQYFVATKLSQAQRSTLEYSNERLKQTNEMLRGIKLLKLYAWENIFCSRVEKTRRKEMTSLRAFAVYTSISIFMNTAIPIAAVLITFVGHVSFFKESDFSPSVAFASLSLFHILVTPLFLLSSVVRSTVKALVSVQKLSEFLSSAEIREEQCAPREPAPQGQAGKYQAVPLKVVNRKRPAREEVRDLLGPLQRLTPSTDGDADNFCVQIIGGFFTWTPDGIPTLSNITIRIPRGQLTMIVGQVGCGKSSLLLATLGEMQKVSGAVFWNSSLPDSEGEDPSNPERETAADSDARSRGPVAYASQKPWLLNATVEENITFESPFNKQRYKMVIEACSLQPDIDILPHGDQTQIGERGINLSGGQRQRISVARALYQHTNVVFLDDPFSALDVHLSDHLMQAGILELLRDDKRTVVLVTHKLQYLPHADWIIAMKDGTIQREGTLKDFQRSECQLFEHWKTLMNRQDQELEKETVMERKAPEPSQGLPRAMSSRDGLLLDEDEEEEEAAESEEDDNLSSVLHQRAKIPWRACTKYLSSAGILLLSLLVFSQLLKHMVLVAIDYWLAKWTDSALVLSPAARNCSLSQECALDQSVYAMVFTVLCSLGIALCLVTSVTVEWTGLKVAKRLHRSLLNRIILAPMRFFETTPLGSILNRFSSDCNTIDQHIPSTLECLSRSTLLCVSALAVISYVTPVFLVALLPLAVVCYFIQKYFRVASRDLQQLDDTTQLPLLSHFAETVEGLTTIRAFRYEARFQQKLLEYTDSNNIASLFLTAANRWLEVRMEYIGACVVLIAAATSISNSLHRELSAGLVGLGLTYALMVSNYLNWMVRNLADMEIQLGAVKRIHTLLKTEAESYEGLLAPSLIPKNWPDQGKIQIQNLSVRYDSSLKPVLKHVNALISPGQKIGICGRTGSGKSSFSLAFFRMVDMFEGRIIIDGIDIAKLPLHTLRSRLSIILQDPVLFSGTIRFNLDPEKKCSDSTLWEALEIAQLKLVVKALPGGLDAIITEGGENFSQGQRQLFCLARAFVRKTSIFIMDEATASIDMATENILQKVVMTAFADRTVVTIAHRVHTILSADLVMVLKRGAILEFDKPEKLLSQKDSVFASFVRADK
T1 sequence (P70673 whole entry partner): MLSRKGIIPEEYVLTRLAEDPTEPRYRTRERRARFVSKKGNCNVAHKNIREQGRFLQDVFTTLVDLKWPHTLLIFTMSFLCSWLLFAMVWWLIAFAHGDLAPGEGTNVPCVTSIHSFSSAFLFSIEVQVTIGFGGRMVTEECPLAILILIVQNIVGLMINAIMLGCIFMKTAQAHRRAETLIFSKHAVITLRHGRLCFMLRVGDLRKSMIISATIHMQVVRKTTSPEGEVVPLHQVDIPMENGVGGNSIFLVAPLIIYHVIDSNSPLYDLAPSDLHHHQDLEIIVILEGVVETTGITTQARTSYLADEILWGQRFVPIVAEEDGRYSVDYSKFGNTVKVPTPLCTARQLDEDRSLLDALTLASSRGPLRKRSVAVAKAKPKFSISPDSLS

- IC50 [1]: 14 nM
SMILES: CC(C)CC(NC(=O)Cc1ccc(OC(C)(C)C(=O)O)cc1)c1ccccc1N1CCCCC1 (stereo not drawn) [Compound 1, 2-[4-[1-(3-methyl-1-(2-(1-piperidinyl)phenyl)butyl)aminocarbonylmethyl]phenoxy]-2-methylpropanoic acid]
- decrease in glycemia between T=0 and T=120 min (Male Sprague-Dawley rats; 50 mpk, oral, fasted rat): 48%
- plasmatic insulin peak, time following administration (Male Sprague-Dawley rats; 50 mpk, oral, fasted rat): 15 min
- hypoglycemia kinetics and amplitude compared with compound 52 (Male Sprague-Dawley rats; comparison of FIGS. 5a and 5c): faster and more intense
- insulinotropic activity on human islets ([2]; 0.1 μM): not having any significant insulinotropic activity
- insulin secreted in 1 hour versus non-treated islets ([2]; 1 μM): ~4 times
